{"source": "patent US20030147936A1", "about": "“Prostatic hormonal implants treatment of prostate cancer” (priority 2002, published 2003)", "key": {"[1]": {"system": "recurrent poor prognostic prostate cancer", "description": "Since this hormonal treatment was rendered at recurrence after radiation therapy, it is termed as secondary hormonal treatment.\nLater it was reduced to 1 mg per day."}, "[2]": {"system": "recurrent prostate cancer", "assay": "Serum acid phosphatase of the same patient on oral DES", "assay_type": "in vivo, human"}, "[3]": {"system": "hormone-refractory prostate cancer", "conditions": "in vivo; cited from earlier work"}, "[4]": {"system": "estrogen antiserum", "conditions": "cited from earlier work"}, "[5]": {"system": "rat breast tumor", "assay": "Implantation of iodoestradiol adsorbed sponges to rat breast tumor", "assay_type": "in vivo", "conditions": "sponges implanted to rat breast tumor; unpublished data", "excerpt": "In U.S. Pat. No. 4,321,208 (31; Sahadevan V: Preparation of directly iodinated steroid hormones and related compounds, U.S. Pat. No. 4,321,208; 1982) this inventor has described the methods for preparation of iodinated steroid hormones including the estradiol as early as in 1976, the time of filing the patent application."}, "[6]": {"target": "estrogen receptor sites (Homo sapiens, UniProt P03372)", "sequence (P03372 whole entry)": "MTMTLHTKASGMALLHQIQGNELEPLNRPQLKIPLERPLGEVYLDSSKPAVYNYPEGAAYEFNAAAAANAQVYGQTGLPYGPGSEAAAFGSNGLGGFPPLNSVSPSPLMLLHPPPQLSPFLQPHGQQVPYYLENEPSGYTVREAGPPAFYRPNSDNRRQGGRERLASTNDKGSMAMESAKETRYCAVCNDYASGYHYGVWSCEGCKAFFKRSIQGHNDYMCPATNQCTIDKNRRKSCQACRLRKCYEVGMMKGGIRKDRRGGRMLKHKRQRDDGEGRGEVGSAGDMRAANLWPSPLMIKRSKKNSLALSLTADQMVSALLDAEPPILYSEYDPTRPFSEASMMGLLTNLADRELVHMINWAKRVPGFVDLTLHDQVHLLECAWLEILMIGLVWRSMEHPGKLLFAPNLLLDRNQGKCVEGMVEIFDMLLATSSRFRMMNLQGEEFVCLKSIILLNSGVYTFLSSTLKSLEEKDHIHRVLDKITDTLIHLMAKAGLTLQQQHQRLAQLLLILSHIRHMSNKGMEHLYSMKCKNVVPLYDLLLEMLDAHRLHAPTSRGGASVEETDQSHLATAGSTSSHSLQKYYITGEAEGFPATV", "conditions": "cited from earlier work"}, "[7]": {"system": "prostate with cancer, prostatic volume greater than 50 cc", "conditions": "before interstitial radioactive seed implant; cited from earlier work"}, "[8]": {"conditions": "DES 1 mg three times per day by mouth, four years of follow-ups"}, "[9]": {"conditions": "June 10, 1993, pretreatment value, before DES was started, table dose 3 mg 3× daily"}, "[10]": {"conditions": "September 15, 1993, DES 3 mg 3× daily (table)"}}, "note": "Where two headings read alike, the source gives them in different places.", "data": [{"compound": "CC/C(=C(/CC)c1ccc(O)cc1)c1ccc(O)cc1", "note": "[DES, diethylstilbestrol]", "values": [{"measurement": "PSA reduced to", "setting": "[1]; 1 mg DES three times a day, patients with serum PSA exceeding over 300 ng per ml", "value": "less than 1 ng per ml"}, {"measurement": "PSA", "setting": "[1]; August 4, 1996, DES 1 mg daily", "value": ">0.1", "unit": "ng/mL"}, {"measurement": "PSA", "setting": "[1]; August 5, 1997, DES 1 mg daily", "value": ">0.1", "unit": "ng/mL"}, {"measurement": "serum PSA nadir value during treatment with DES", "setting": "[1]; [8]", "value": 0.1, "unit": "ng per ml"}, {"measurement": "PSA reduced to", "setting": "[1]; DES oral dose of 1 mg daily, 363 ng per ml before treatment", "value": 0.1, "unit": "ng per ml"}, {"measurement": "PSA", "setting": "[1]; [9]", "value": 363.0, "unit": "ng/mL"}, {"measurement": "PSA", "setting": "[1]; June 13, 1994, DES 3 mg 3× daily (table)", "value": ">0.1", "unit": "ng/mL"}, {"measurement": "PSA", "setting": "[1]; May 3, 1995, DES 3 mg 3× daily (table)", "value": ">0.1", "unit": "ng/mL"}, {"measurement": "PSA", "setting": "[1]; September 7, 1993, DES 3 mg 3× daily (table)", "value": 38.4, "unit": "ng/mL"}, {"measurement": "PSA", "setting": "[1]; [10]", "value": 4.5, "unit": "ng/mL"}, {"measurement": "PSA", "setting": "[1]; September 26, 1994, DES 3 mg 3× daily (table)", "value": ">0.1", "unit": "ng/mL"}, {"measurement": "PSA value, maintained at low nadir", "setting": "[1]; continued DES alone, 1 mg three times a day, later 1 mg per day, maintained for four years, pretreatment 363 ng per ml", "value": "less than 0.1 ng"}, {"measurement": "decrease of serum PSA (FIG. 1)", "setting": "[1]; from pretreatment 363 ng per ml, rapidly", "value": "normal level"}, {"measurement": "acid phosphatase nadir value during treatment with DES", "setting": "[2]; [8]", "value": 0.3, "unit": "international unit"}, {"measurement": "Acid Phosphatase", "setting": "[2]; [9]", "value": 48.0, "unit": "iu"}, {"measurement": "Acid Phosphatase", "setting": "[2]; [10]", "value": 0.3, "unit": "iu"}, {"measurement": "decrease of serum acid phosphatase (FIG. 3)", "setting": "[2]; from pretreatment 48 international units per ml, rapidly", "value": "normal level"}, {"measurement": "serum acid phosphatase level", "setting": "[2]; three months after DES 1 mg three times a day, pretreatment 48.0", "value": "< 0.3 international units per ml"}, {"measurement": "effectiveness in hormone-refractory prostate cancer", "setting": "[3]", "value": "effective"}]}, {"compound": "iodoestradiol", "values": [{"measurement": "binding to estrogen antiserum", "setting": "[4]", "value": "binds"}, {"measurement": "tumor regression", "setting": "[5]", "value": "excellent tumor regression"}, {"measurement": "binding to estrogen receptor sites", "setting": "[6]", "value": "binds"}]}, {"compound": "LHRH", "values": [{"measurement": "reduction of the initial prostatic volume", "setting": "[7]", "value": "about 40 per cent"}]}]}
